Results taken from patent publication USRE42890E1, “Furazanobenzimidazoles” (Basilea Pharmaceutica AG, priority 2003, dated 2011).

What was measured:
HT1080 = experiment: MTS proliferation assay, HT1080; assay type: cell-based, human; details: HT1080, 72 h incubation; read-out: MTS proliferation assay IC 50 HT1080
Protocol: Cell lines are cultured in RPMI-1640 tissue culture medium containing either 5% or 10% fetal calf serum, 0.05 mM 2-mercaptoethanol, 2 mM glutamine and penicillin/streptomycin 50 μg/ml (complete medium) (Sigma, Buchs, Switzerland). General growth conditions are 37° C. and 7.5% CO2.
The following human cell lines (either EGFP transfected or not) are being used: HeLa (ATCC: CCL-2), KB (ATCC: CCL-17), MCF7 (ATCC: HTB-22), SK-BR-3 (ATCC: HTB-30), SK-Mel 1 (ATCC: HTB-67), SK-Mel 28 (ATCC: HTB-72), PC-3 (ATCC: CRL-1435), SW 480 (ATCC: CCL-228), NCl-H460 (ATCC: HTB-177), NCl-H1792 (ATCC: CRL-5895), HT1080 (ATCC: CCL-21), Jurkat (ATCC: TIB-152), Ramos (ATCC: CRL-1596), Raji (ATCC: CCL-86), H9 (ATCC: HTB-176), Hut78 (ATCC: TIB-161), K562 (ATCC: CCL 243), HL-60 (ATCC: CCL 240), U-87MG (ATCC: HTB-14), HepG2 (ATCC: HB-8065), U-2 OS (ATCC: HTB-96), Saos-2 (ATCC: HTB-85), U937 (ATCC: CRL 1593), Hs 578T (ATCC: HTB 126), HBL-100 (ATCC: HTB 124), Molt-4 (ATCC: CRL 1582).
The assay is performed in 96 well tissue culture plates. The cells (range: 1.5*10^3-10^4) are seeded out in 80 μl complete medium 24 h prior to compound treatment. The test compounds are added in 20 μl complete medium containing max 5% DMSO. The final compound concentrations in the assays are 10 μM, 3 μM, 1 μM and 0.3 μM, respectively. The assay plates are incubated for 72 h at culture conditions. The MTS reagent is prepared according to the manufacturer's protocol (Promega G1111). 20 μl MTS reagent are added to each well, the assay plates are quickly spun and incubated for another 3 h at culture conditions. Subsequently, the plates are shortly shaked and absorption measured with a microplate-reader at 492 nm.

[1] = test system: adherent cells or suspension cells; experiment: Hoechst 33342 nuclear staining (fraction of apoptotic nuclei); assay type: cell-based; set-up: key: 0 relating to no activity; 1 relating to weak activity comprising less than 70% of the cells; score 2 relating to strong activity comprising more than 70% of the cells
HeLa = experiment: MTS proliferation assay, HeLa; assay type: cell-based, human; details: 72 h incubation, read-out: MTS proliferation assay IC 50 HeLa
Outline: (§1)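 Human lines, EGFP-transfected or not, grow in RPMI-1640 plus 5% or 10% FCS and 2-mercaptoethanol. They receive test compound for 72 h at final concentrations of 10, 3, 1 and 0.3 μM, and MTS conversion is measured at 492 nm.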

Jurkat = experiment: MTS proliferation assay, Jurkat; assay type: cell-based, human; details: 72 h incubation, read-out: MTS proliferation assay IC 50 Jurkat
Outline: as §1

MRC5 = experiment: MTS proliferation assay, MRC5; assay type: cell-based; details: MRC5, 72 h incubation; read-out: MTS proliferation assay IC 50 MRC5
Outline: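 Seed cells in complete RPMI-1640 medium and allow 24 h attachment. Add compounds to final 10 μM, 3 μM, 1 μM or 0.3 μM and incubate 72 h at 37° C. Add MTS, incubate 3 h more, then measure absorption at 492 nm.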

| IC50 (HT1080) | IC50 (HeLa) | SMILES | Hoechst 33342 nuclear staining score ([1]; H460, conc 0.01 μm) | Hoechst 33342 nuclear staining score ([1]; H460, conc 0.1 μm) | Hoechst 33342 nuclear staining score ([1]; H460, conc 1 μm) | Hoechst 33342 nuclear staining score ([1]; HeLa, conc 0.01 μm) | Hoechst 33342 nuclear staining score ([1]; HeLa, conc 0.1 μm) | Hoechst 33342 nuclear staining score ([1]; HeLa, conc 1 μm) | Hoechst 33342 nuclear staining score ([1]; Jily, conc 0.01 μm) | Hoechst 33342 nuclear staining score ([1]; Jily, conc 0.1 μm) | Hoechst 33342 nuclear staining score ([1]; Jily, conc 1 μm) | Hoechst 33342 nuclear staining score ([1]; Jurkat, conc 0.01 μm) | Hoechst 33342 nuclear staining score ([1]; Jurkat, conc 0.1 μm) | Hoechst 33342 nuclear staining score ([1]; Jurkat, conc 1 μm) | Hoechst 33342 nuclear staining score ([1]; MRC5, conc 0.01 μm) | Hoechst 33342 nuclear staining score ([1]; MRC5, conc 0.1 μm) | Hoechst 33342 nuclear staining score ([1]; MRC5, conc 1 μm) | Hoechst 33342 nuclear staining score ([1]; PBLs, conc 0.01 μm) | Hoechst 33342 nuclear staining score ([1]; PBLs, conc 0.1 μm) | Hoechst 33342 nuclear staining score ([1]; PBLs, conc 1 μm) | further results |
| --- | --- | --- | --- | --- | --- | --- | --- | --- | --- | --- | --- | --- | --- | --- | --- | --- | --- | --- | --- | --- | --- |
| > 1000 nM | > 1000 nM | Cc1cc2nc(-c3nonc3N)n(CC(=O)c3ccc(Cl)cc3)c2cc1C [Example 110] | 0 | 0 | 0 | 0 | 0 | 0 | 0 | 0 | 0 | 0 | 0 | 0 | 0 | 0 | 0 | 0 | 0 | 0 | IC50 (Jurkat): > 1000 nM; IC50 (MRC5): > 1000 nM |
| > 1000 nM | > 1000 nM | COc1cc2nc(-c3nonc3N)n(CC(=O)c3ccc(-c4ccccc4)cc3)c2cc1OC [Example 117] | 0 | 0 | 0 | 0 | 0 | 0 | 0 | 0 | 0 | 0 | 0 | 0 | 0 | 0 | 0 | 0 | 0 | 0 | IC50 (Jurkat): > 1000 nM; IC50 (MRC5): > 1000 nM |
| > 1000 nM | > 1000 nM | COc1ccc(C(=O)Cn2c(-c3nonc3N)nc3cc(C)c(C)cc32)cc1 [Example 111] | 0 | 0 | 0 | 0 | 0 | 0 | 0 | 0 | 0 | 0 | 0 | 0 | 0 | 0 | 0 | 0 | 0 | 0 | IC50 (Jurkat): > 1000 nM; IC50 (MRC5): > 1000 nM |
| > 1000 nM | > 1000 nM | COc1cc2nc(-c3nonc3N)n(CC(=O)c3ccc(Cl)cc3)c2cc1OC [Example 114] | 0 | 0 | 0 | 0 | 0 | 0 | 0 | 0 | 0 | 0 | 0 | 0 | 0 | 0 | 0 | 0 | 0 | 0 | IC50 (Jurkat): > 1000 nM; IC50 (MRC5): > 1000 nM |
